From patent publication US20150313228A1, “SYNERGISTIC HERBICIDAL COMBINATIONS AND METHODS OF USE” (priority 2012, published 2015)

How the values were obtained:
[1] = tested on: velvetleaf; assay: Post-emergence application in velvetleaf under greenhouse conditions (Example 8); assay type: in vivo
Text: (§1) The following testing protocol was employed to evaluate the post-emergence application of herbicides and herbicide combinations as described in the following examples unless otherwise specified. The weed species to be treated were planted in 3.5 inch pots containing redi-earth potting mix and grown under greenhouse conditions. When the weed species reached a height of about four inches, herbicide was applied at the specified application rate using a track sprayer with a flat even nozzle type, 9501E nozzle size, and spray pressure of 165 kPa. After the application of the herbicide(s), the pots were only sub-irrigated as needed. Throughout the test period, temperature was maintained from about 20° C. to about 30° C. and relative humidity was maintained at about 30%. The plants were rated visually and percentage of weed control was determined for each treatment at 15 to 21 days after herbicide application.
Post-emergence application of several herbicides and herbicide combinations was evaluated in velvetleaf under greenhouse conditions. The plants were rated visually and percentage of weed control was determined at 24 days after herbicide application. The herbicides and herbicide combinations evaluated are listed in Table 8-A below together with the corresponding percent control data. The data represent an average value (n=6).
The results of the analysis are reported below in Table 8-B (glyphosate+dicamba), Table 8-C(glyphosate+metribuzin), and Table 8-D (dicamba+metribuzin).

[2] = tested on: Palmer amaranth; assay: Post-emergence application in Palmer amaranth under greenhouse conditions (Example 7); assay type: in vivo; details: 24 days after application
Text: as §1
Post-emergence application of several herbicides and herbicide combinations was evaluated in Palmer amaranth under greenhouse conditions. The plants were rated visually and percentage of weed control was determined at 24 days after herbicide application. The herbicides and herbicide combinations evaluated are listed in Table 7-A below together with the corresponding percent control data. The data represent an average value (n=6).
The results of the analysis are reported below in Table 7-B (glyphosate+dicamba), Table 7-C(glyphosate+metribuzin), and Table 7-D (dicamba+metribuzin).

Structure (SMILES): O=C(O)CNCP(=O)(O)O [Glyphosate]
- PERCENT CONTROL (ACTUAL) ([1]; 560 g/ha, 24 days after application): 81.0%
- PERCENT CONTROL (ACTUAL) ([1]; 1120 g/ha, 24 days after application): 100.0%
- PERCENT CONTROL (ACTUAL) ([1]; Table 8-C, velvetleaf, 24 days, dose 560 g/ha): 81.0%
- PERCENT CONTROL (ACTUAL) ([1]; Table 8-C, velvetleaf, 24 days, dose 1120 g/ha): 100.0%
- PERCENT CONTROL ([2]; 560 g/ha): 20.0%
- PERCENT CONTROL ([2]; 1120 g/ha): 50.0%
